Reference: patent publication US11464802B2, “3-substituted piperidine compounds for Cbl-b inhibition, and use thereof” (Nurix Therapeutics, Inc., priority 2019, dated 2022)

What was measured:
[1] = system: primary human total T-cells; experiment: Primary human total T-cell activation: CD25 surface staining, Biological Example 9; assay type: cell-based; conditions: 48 hours, fold change over baseline; for fold induction at 1 µM: inhibitor 1 μM
[2] = system: primary human total T-cells; experiment: Primary human total T-cell activation: IL-2 secretion, Biological Example 9; assay type: cell-based; conditions: 48 hours, fold change over baseline; for fold induction at 1 µM: inhibitor 1 μM
[3] = system: primary human total T-cells; experiment: Primary human total T-cell activation: CD25 surface staining, Biological Example 13; assay type: cell-based; conditions: 48 hours, fold change over baseline; for fold induction at 1 µM: inhibitor 1 μM
[4] = system: primary human total T-cells; experiment: Primary human total T-cell activation: IL-2 secretion, Biological Example 13; assay type: cell-based; conditions: 48 hours, fold change over baseline; for fold induction at 1 µM: inhibitor 1 μM
Cbl-b [5] = molecular target: T1, Cbl-b (Homo sapiens (Human), UniProt Q13191); experiment: Cbl-b displacement assay (Cbl-b inhibition assay), Biological Example 8; assay type: binding; conditions: 0.125 nM Cbl-b final concentration (Low); Table 8-1; read-out: Cbl-b IC50 (Low)
Protocol: (§1) Candidate compounds were evaluated for their ability to bind and inhibit Cbl-b, an E3 ubiquitin-protein ligase, as evidenced by their ability to displace a fluorophore-labeled probe bound to Cbl-b.
(§2) The ability of candidate compounds to displace a known inhibitor and thereby inhibit Cbl-b activity was measured by monitoring the interaction of Cbl-b with a fluorophore-labeled probe in the presence of the candidate compound. A truncated variant of Cbl-b (UniProt number Q13191) containing residues 36-427 and an Avitag at its N-terminus was co-expressed with BirA biotin ligase and purified using a standard protocol (see Dou et al., Nature Structural and Molecular Biology 8: 982-987, 2013; Avidity LLC).
(§3) Fluorescently-labeled inhibitor probe was synthesized and tagged with BODIPY FL. Cbl-b displacement assays were performed in a 384-well plate at room temperature in a 10 μl reaction volume by pre-incubating 0.5 nM Cbl-b or 0.125 nM Cbl-b (final concentration, indicated as “High” and “Low”, respectively) in an assay buffer containing 20 mM HEPES pH 7.5, 150 mM NaCl, 0.01% Triton X-100, 0.01% BSA and 0.5 mM TCEP in the presence of a candidate compound in 1% DMSO (final concentration) for 1 hour. After incubation in the presence of the candidate compound, the plate was incubated for an additional 1 hour in the presence of an approximate EC40 binding saturation consisting of 150 nM fluorescently-labeled inhibitor probe and 2 nM Streptavidin-Terbium (Cisbio) (final concentrations). Following the 1 hour incubation, the plates were read for TR-FRET signal at 520/620 nM using an Envision plate reader (Perkin Elmer).
(§4) The resulting data for the Cbl-b activity assays were analyzed using standard methods to determine the IC50 values for the tested compounds.

Cbl-b [6] = molecular target: T1, Cbl-b; experiment: Cbl-b displacement assay (Cbl-b inhibition assay), Biological Example 12; assay type: binding; conditions: 0.125 nM Cbl-b final concentration (Low); Table 12-1; read-out: Cbl-b IC50 (Low)
Protocol: as §1, §2, §3, §4

Cbl-b [7] = molecular target: T1, Cbl-b; experiment: Cbl-b displacement assay (Cbl-b inhibition assay), TR-FRET probe displacement, Biological Example 1; assay type: binding
In short: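 TR-FRET displacement of a BODIPY FL-labelled inhibitor probe (150 nM, ~EC40) from biotin-Avitag truncated Cbl-b, detected via 2 nM streptavidin-Tb, 1 h, room temperature. Compound in 1% DMSO pre-incubated 1 h with Cbl-b at 0.5 nM (High) or 0.125 nM (Low) in 20 mM HEPES pH 7.5, 150 mM NaCl, 0.5 mM TCEP.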

[8] = system: primary human total T-cells; experiment: Primary human total T-cell activation: CD25 surface staining, Biological Example 2; assay type: cell-based; conditions: 48 hours, fold change over baseline; for fold induction at 0.3 µM: inhibitor 0.3 μM; for fold induction at 1 µM: inhibitor 1 μM; for fold induction at 3 µM: inhibitor 3 μM
[9] = system: primary human total T-cells; experiment: Primary human total T-cell activation: IL-2 secretion, Biological Example 2; assay type: cell-based; conditions: 48 hours, fold change over baseline; for fold induction at 0.3 µM: inhibitor 0.3 μM; for fold induction at 1 µM: inhibitor 1 μM; for fold induction at 3 µM: inhibitor 3 μM
[10] = anti-CD3/anti-CD28 co-stimulation, inhibitor 0.3 μM, Table 9-1
[11] = anti-CD3 alone, inhibitor 3 μM, Table 9-1
[12] = anti-CD3/anti-CD28 co-stimulation, inhibitor 0.3 μM, Table 13-1
[13] = anti-CD3 alone, inhibitor 3 μM, Table 13-1
[14] = 0.125 nM Cbl-b final concentration (Low), read-out: Cbl-b activity IC50 (Low)
[15] = anti-CD3/anti-CD28 co-stimulation
[16] = anti-CD3/anti-CD28 co-stimulation, read-out: CD25 staining CD3/CD28 1 μM
[17] = anti-CD3 alone, read-out: CD25 staining CD3 1 μM
[18] = 0.5 nM Cbl-b final concentration (High), read-out: Cbl-b activity IC50 (High)
[19] = Cbl-b concentration (High or Low) not given, read-out: IC50 values in the Cbl-b inhibition assay of Biological Example 1
[20] = anti-CD3/anti-CD28 co-stimulation, read-out: IL-2 secretion CD3/CD28 1 μM
[21] = anti-CD3 alone, read-out: IL-2 secretion CD3 1 μM

T1 sequence (Q13191 36-427): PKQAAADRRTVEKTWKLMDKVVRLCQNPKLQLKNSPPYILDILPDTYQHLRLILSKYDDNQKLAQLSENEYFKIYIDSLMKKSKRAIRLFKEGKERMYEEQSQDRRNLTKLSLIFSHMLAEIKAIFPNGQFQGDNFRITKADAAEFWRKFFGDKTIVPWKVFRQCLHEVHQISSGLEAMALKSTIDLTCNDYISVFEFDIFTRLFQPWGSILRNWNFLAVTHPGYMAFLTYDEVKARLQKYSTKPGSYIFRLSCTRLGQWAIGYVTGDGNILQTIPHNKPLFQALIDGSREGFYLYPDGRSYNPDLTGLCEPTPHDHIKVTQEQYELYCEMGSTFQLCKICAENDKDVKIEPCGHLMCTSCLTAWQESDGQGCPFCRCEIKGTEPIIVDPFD

Compound	IC50 (Cbl-b [7]; [14])	IC50 (Cbl-b [7]; [18])	IC50 (Cbl-b [7]; [19])	fold induction at 0.3 µM [8, 15]	fold induction at 1 µM [8, 16]	fold induction at 1 µM [8, 17]	fold induction at 3 µM ([8]; anti-CD3 alone)	fold induction at 0.3 µM [9, 15]	fold induction at 1 µM [9, 20]	fold induction at 1 µM [9, 21]	fold induction at 3 µM ([9]; anti-CD3 alone)	other results
Cn1cnnc1CC1(c2cccc(N3Cc4c(cc(CN5CCC6(CC6)C5)cc4C(F)(F)F)C3=O)c2)COC1 [Compound 59]	–	–	–	–	–	–	–	–	–	–	–	fold induction at 0.3 µM [1, 10]: 1.25 to 1.39; fold induction at 1 µM ([1]; anti-CD3/anti-CD28 co-stimulation, Table 9-1, read-out: CD25 staining CD3/CD28 1 μM): > 1.39; fold induction at 1 µM ([1]; anti-CD3 alone, Table 9-1, read-out: CD25 staining CD3 1 μM): > 1.14; fold induction at 3 µM [1, 11]: > 1.14; fold induction at 0.3 µM [2, 10]: > 15; fold induction at 1 µM ([2]; anti-CD3/anti-CD28 co-stimulation, Table 9-1, read-out: IL-2 secretion CD3/CD28 1 μM): > 15; fold induction at 1 µM ([2]; anti-CD3 alone, Table 9-1, read-out: IL-2 secretion CD3 1 μM): < 0.33; fold induction at 3 µM [2, 11]: 0.34 to 0.66; fold induction at 0.3 µM [3, 12]: 1.25 to 1.39; fold induction at 1 µM ([3]; anti-CD3/anti-CD28 co-stimulation, Table 13-1, read-out: CD25 staining CD3/CD28 1 μM): > 1.39; fold induction at 1 µM ([3]; anti-CD3 alone, Table 13-1, read-out: CD25 staining CD3 1 μM): > 1.14; fold induction at 3 µM [3, 13]: > 1.14; fold induction at 0.3 µM [4, 12]: > 15; fold induction at 1 µM ([4]; anti-CD3/anti-CD28 co-stimulation, Table 13-1, read-out: IL-2 secretion CD3/CD28 1 μM): > 15; fold induction at 1 µM ([4]; anti-CD3 alone, Table 13-1, read-out: IL-2 secretion CD3 1 μM): < 0.33; fold induction at 3 µM [4, 13]: 0.34 to 0.66; IC50 (Cbl-b [5]): 1 to 5 nM; IC50 (Cbl-b [6]): 1 to 5 nM
C[C@@H]1CN(Cc2cc3c(c(C4CC4)n2)CN(c2cccc(C4(Cc5nncn5C)COC4)c2)C3=O)CCC1(F)F [Compound 34, (R)-4-Cyclopropyl-6-((4,4-difluoro-3-methylpiperidin-1-yl)methyl)-2-(3-(3-((4-methyl-4H-1,2,4-triazol-3-yl)methyl)oxetan-3-yl)phenyl)-2,3-dihydro-1H-pyrrolo[3,4-c]pyridin-1-one]	1 to 5 nM	–	–	–	–	–	–	–	–	–	–	IC50 (Cbl-b [5]): 1 to 5 nM; IC50 (Cbl-b [6]): 1 to 5 nM
C[C@H]1CCCN([C@@H](C)c2cc3c(c(C4CC4)n2)CN(c2cccc(C4(Cc5nncn5C)COC4)c2)C3=O)C1 [Compound 51, 4-cyclopropyl-2-(3-(3-((4-methyl-4H-1,2,4-triazol-3-yl)methyl)oxetan-3-yl)phenyl)-6-((S)-1-((S)-3-methylpiperidin-1-yl)ethyl)-2,3-dihydro-1H-pyrrolo[3,4-c]pyridin-1-one]	< 1 nM	–	–	> 1.39	> 1.39	> 1.14	> 1.14	> 15	> 15	> 0.66	> 0.66	–
CCOc1cc(C2(Cc3nncn3C)COC2)cc(N2Cc3c(cc(CN4CCC(F)(F)[C@H](C)C4)nc3C3CC3)C2=O)n1 [Compound 41, 4-cyclopropyl-6-{[(3R)-4,4-difluoro-3-methylpiperidin-1-yl]methyl}-2-(6-ethoxy-4-{3-[(4-methyl-1,2,4-triazol-3-yl)methyl]oxetan-3-yl}pyridin-2-yl)-3H-pyrrolo[3,4-c]pyridin-1-one]	1 to 5 nM	–	–	> 1.39	> 1.39	> 1.14	> 1.14	> 15	> 15	> 0.66	> 0.66	–
C[C@H]1CCCN([C@H](C)c2cc3c(c(C4CC4)n2)CN(c2cccc(C4(Cc5nncn5C)COC4)c2)C3=O)C1 [Compound 52, 4-cyclopropyl-2-(3-(3-((4-methyl-4H-1,2,4-triazol-3-yl)methyl)oxetan-3-yl)phenyl)-6-((R)-1-((S)-3-methylpiperidin-1-yl)ethyl)-2,3-dihydro-1H-pyrrolo[3,4-c]pyridin-1-one]	1 to 5 nM	–	1 to 5 nM	> 1.39	> 1.39	> 1.14	> 1.14	> 15	> 15	> 0.66	> 0.66	–
C[C@H]1C[C@@H](CO)CN(Cc2cc3c(c(C(F)(F)F)c2)CN(c2cccc(C4(Cc5nncn5C)COC4)c2)C3=O)C1 (relative stereo) [Compound 23, cis-6-{[3-(hydroxymethyl)-5-methylpiperidin-1-yl]methyl}-2-(3-{3-[(4-methyl-1,2,4-triazol-3-yl)methyl]oxetan-3-yl}phenyl)-4-(trifluoromethyl)-3H-isoindol-1-one]	< 1 nM	–	< 1 nM	> 1.39	> 1.39	1.05 to 1.14	1.05 to 1.14	> 15	> 15	> 0.66	> 0.66	–

Continued, in another order:

IC50 (Cbl-b [7]; [14])	IC50 (Cbl-b [7]; [18])	IC50 (Cbl-b [7]; [19])	Compound	fold induction at 0.3 µM [8, 15]	fold induction at 1 µM [8, 16]	fold induction at 1 µM [8, 17]	fold induction at 3 µM ([8]; anti-CD3 alone)	fold induction at 0.3 µM [9, 15]	fold induction at 1 µM [9, 20]	fold induction at 1 µM [9, 21]	fold induction at 3 µM ([9]; anti-CD3 alone)	other results
–	1 to 5 nM	1 to 5 nM	Cn1cnnc1CC1(c2cccc(N3Cc4c(cc(CN5CCC(F)(F)[C@H](C#N)C5)cc4C(F)(F)F)C3=O)c2)COC1 [Compound 11, (S)-4,4-difluoro-1-((2-(3-(3-((4-methyl-4H-1,2,4-triazol-3-yl)methyl)oxetan-3-yl)phenyl)-3-oxo-7-(trifluoromethyl)isoindolin-5-yl)methyl)piperidine-3-carbonitrile]	1.25 to 1.39	1.25 to 1.39	< 1.04	< 1.04	< 10	11 to 15	< 0.33	< 0.33	–
–	1 to 5 nM	–	Cn1cnnc1CC1(c2cccc(N3Cc4c(cc(CN5CCC(F)(F)[C@@H](CO)C5)cc4C(F)(F)F)C3=O)c2)COC1 [Compound 16, (R)-6-((4,4-difluoro-3-(hydroxymethyl)piperidin-1-yl)methyl)-2-(3-(3-((4-methyl-4H-1,2,4-triazol-3-yl)methyl)oxetan-3-yl)phenyl)-4-(trifluoromethyl)isoindolin-1-one]	< 1.24	< 1.24	< 1.04	1.05 to 1.14	< 10	< 10	< 0.33	< 0.33	–
–	5.1 to 100 nM	5.1 to 100 nM	C[C@@H]1CN(Cc2cc3c(c(C(F)(F)F)c2)CN(c2cc(C4(Cc5nncn5C)COC4)cc(NC4COC4)n2)C3=O)CCC1(F)F [Compound 29, (R)-6-((4,4-difluoro-3-methylpiperidin-1-yl)methyl)-2-(4-(3-((4-methyl-4H-1,2,4-triazol-3-yl)methyl)oxetan-3-yl)-6-(oxetan-3-ylamino)pyridin-2-yl)-4-(trifluoromethyl)isoindolin-1-one]	< 1.24	< 1.24	< 1.04	< 1.04	11 to 15	11 to 15	0.34 to 0.66	0.34 to 0.66	–
